These results are taken from patent US9732105B2, “Targeted nitroxide agents” (University of Pittsburgh—of the Commonwealth System of …, priority 2011, dated 2017).

Like-named read-outs stand apart in the source and are kept apart here.

One data set concerns Ercc1^−/− MEFs. The experiment in a line: Cell proliferation / rescue of oxidative-stress-induced senescence in Ercc1−/− MEFs. It is filed as cell-based. The settings on record: for EC50: read-out: Cell proliferation EC50. From the text:
Cell survival in irradiation studies depends on complex biochemical pathways, possibly accounting for the complex correlation of nitroxide structure and radiation mitigation properties. Irradiation-induced cell death results from an accumulation of events that individually are not able to kill the cell, but which become lethal when added together. To develop a firmer basis for studying structural modifications, we assayed the ability to rescue cellular senescence induced by oxidative stress in Ercc1^−/− MEFs as a function of test agents (Table 5).
Ercc1^−/− MEFs completely lack a critical DNA repair factor, making these cells highly sensitive to genotoxic and oxidative stress. Growth of the Ercc1^−/− MEFs in 20% 02 results in cellular senescence as measured by senescence associated β-gal, γ-H2AX staining and p16 protein levels. The ability to rescue senescence, as measured by an increase in cell number, correlates with the inhibition of oxidative stress.

Data set [1] in a line: Ascorbic acid electron scavenging assay (disappearance of nitroxide ESR signal). It is filed as biochemical. Particulars: 0.5 μM nitroxide, nitroxide ESR signal after 8.5 min; for Signal Decrease (%) (a): 35 μM ascorbate; for Signal Decrease (%) (b): 280 μM ascorbate; for Signal Decrease (%) (c): 1.12 mM ascorbate. From the text:
In contrast to the DPPH assay, which mainly addresses the radical scavenging/reducing properties of nitroxides and hydroxylamines, the reaction of nitroxides with ascorbic acid benchmarks their ability to act as oxidizing agents in their conversion to hydroxylamines, which is important to their protective function as electron scavengers in the mitochondrial electron transport chain. The electron acceptor potentials of various nitroxides were thus benchmarked in the presence of low, medium, and high concentrations of the electron donor ascorbate (Table 3). ESR was used to detect the characteristic triplet of the nitroxide vs the doublet of ascorbate radicals (see supplementary information), and the disappearance of the former and appearance of the latter was measured over 8.5 min.

Data set [2] deals with 32Dcl3 murine hematopoietic cells. In words: Irradiation survival assay (colony formation) in 32Dcl3 cells. It is filed as cell-based. The settings on record: for Do, before irradiation / ñ, before irradiation: 10 μM nitroxide for 1 h before irradiation, 0 to 8 Gy; for Do, before irradiation / ñ, before irradiation / Do, after irradiation / ñ, after irradiation: colonies after 7 d; for Do, after irradiation / ñ, after irradiation: cells irradiated, then placed in media containing 10 μM nitroxide; for protection of cells from irradiation (in words): given 1 h before irradiation, shown by increased D0. From the text: Irradiation survival assays were used to test the ability of selected nitroxide-conjugates to protect against, or mitigate, irradiation-induced damage of 32Dcl3 murine hematopoietic cells.

Data set [3] is described as follows: DPPH radical scavenging assay. Particulars: for EC50: EtOH, 100 μM DPPH, 30 min at 37° C. It is filed as biochemical. From the text: The free radical reduction abilities of the nitroxides and nitroxide-conjugates were benchmarked by the DPPH (2,2-diphenyl-1-picrylhydrazyl) assay.
Background: Loss of DPPH colour is used to gauge radical scavenging.

Data set [4] in a line: Stability of the free nitroxide on storage. It is filed as physicochemical. Particulars: after removal of the Boc group; storage at rt. From the text:
Preparation of 3-amino-ABNO (12) was envisioned from the known ketone 21, which was easily accessible in one step from acetonedicarboxylic acid and glutaraldehyde (Scheme 1). Conversion of 21 to oxime 22, followed by reduction to the amine with nickel boride and N-Boc protection provided carbamate 23 in high yield. Removal of the benzyl group by catalytic hydrogenolysis and oxidation of the free secondary amine in the presence of urea-hydrogen peroxide complex (UHP) furnished the Boc-protected nitroxide 24.
A mixture of Boc-protected amine 3-Boc-amino-ABNO (24, 200 mg, 0.783 mmol) in a 4.0 N solution of HCl in 1,4-dioxane (3.3 mL, 13.2 mmol) was stirred at 0° C. for 1 h and at rt for an additional 2 h. The suspension was then filtered and the solid rinsed with cold dry Et2O, to give 167 mg of an off-white powder. It was dissolved in a minimum of 2.5 N aq. NaOH, and extracted with warm CHCl3 (7×). The combined organic layers were dried (K2CO3), filtered and concentrated in vacuo to afford 110 mg (90%) of a red oil. Upon high vacuum and/or storage at rt for not more than 1 h, the product started to loose the red color characteristic for a nitroxide and became pale yellow. Thus, the title compound is unstable.

Take `CC(C)C[C@@H](/C=C/C(F)(F)C(=O)NC1CC(C)(C)N([O])C(C)(C)C1)NC(=O)OC(C)(C)C` [Compound 6]: the EC50 in the data set on Ercc1^−/− MEFs was 7.6 ± 1.4 nM. For the same molecule, in data set [1], the “Signal Decrease (%) (a)” value is reported as 58.4% and the “Signal Decrease (%) (b)” value is listed as 94.1%.

In the case of 5-amino-TMIO [Compound 8], the EC50 with Ercc1^−/− MEFs (Ercc1−/− MEFs, 20% O2) was under 1 nM. Moreover, the “Signal Decrease (%) (c)” value in data set [1] was 40.3%.

As for `CC(C)C[C@@H](/C=C/CC(=O)NC1CC(C)(C)N([O])C(C)(C)C1)NC(=O)OCc1ccccc1` [Compound 1], the EC50 in the data set on Ercc1^−/− MEFs (Ercc1−/− MEFs, 20% O2) was determined as 589 nM.

Turning to `CC(C)C[C@H](NC(=O)OCc1ccccc1)[C@@H]1C[C@H]1CC(=O)NC1CC(C)(C)N([O])C(C)(C)C1` [Compound 4], the EC50 in the data set on Ercc1^−/− MEFs (Ercc1−/− MEFs, 20% O2) turned out to be 231 nM.

For `CC(C)(C)OC(=O)NC1CC2CCCC(C1)N2O` (stereo not shown) [Compound 24, 3-(tert-Butoxycarbonylamino)-9-azabicyclo[3.3.1]nonane N-oxyl], the EC50 with Ercc1^−/− MEFs (Ercc1−/− MEFs, 20% O2) was 40 nM. Moreover, in data set [1], the “Signal Decrease (%) (a)” value was 100% and the “Signal Decrease (%) (b)” value is 100%.

For `CC(C)C[C@H](NC(=O)OC(C)(C)C)[C@@H]1C[C@H]1CC(=O)NC1CC(C)(C)N([O])C(C)(C)C1` [Compound 2], the EC50 with Ercc1^−/− MEFs (Ercc1−/− MEFs, 20% O2) was 332 nM.

Consider `CC1(C)CC(O)CC(C)(C)N1[O]` [Compound 9, 4-hydroxy-2,2,6,6-tetramethylpiperidine-N-oxyl, reference compound], for which, in the data set with Ercc1^−/− MEFs, the EC50 was 229 ± 23.9 nM. Moreover, in data set [1], the “Signal Decrease (%) (a)” value was found to be 35.7%, the “Signal Decrease (%) (b)” value amounted to 81% and the “Signal Decrease (%) (c)” value is listed as 100%.

Consider `CC(C)C[C@@H](/C=C/CC(=O)Nc1ccc2c(c1)C(C)(C)N([O])C2(C)C)NC(=O)OC(C)(C)C` [Compound 20], for which the EC50 with Ercc1^−/− MEFs (Ercc1−/− MEFs, 20% O2) is 17.6 ± 1.4 nM. For the same molecule, in data set [2], the “Do, before irradiation” value is recorded as 1.8 ± 0.1 Gy; the “ñ, before irradiation” value is reported as 1.0 ± 0.1; the “Do, after irradiation” value is reported as 1.4 ± 0.1 Gy; the “ñ, after irradiation” value was found to be 2.4 ± 0.2. The “protection of cells from irradiation (in words)” value (“protection of cells” for short) in data set [2] is reported as “able to protect cells from multiple killing events”. Also, in data set [1], the “Signal Decrease (%) (b)” value was found to be 15.5% and the “Signal Decrease (%) (c)” value came to 77.4%. Further, the “DPPH radical scavenging activity (in words)” value in data set [3] is given as “slightly higher EC50 values than their corresponding nitroxide substructures”.

`CC(C)C[C@@H](/C=C/CC(=O)NC1CC(C)(C)N([O])C(C)(C)C1)NC(=O)OC(C)(C)C` [JP4-039]: the EC50 in the data set on Ercc1^−/− MEFs turned out to be 210 ± 15.2 nM. Further, in data set [2], the “Do, before irradiation” value is given as 2.3 ± 0.3 Gy; the “ñ, before irradiation” value is on record as 1.0 ± 0.1; the “Do, after irradiation” value is reported as 1.2 ± 0.1 Gy; the “ñ, after irradiation” value is on record as 3.5 ± 0.2. For the same molecule, the “protection of cells” value in data set [2] is given as “able to protect cells from multiple killing events”. Further, in data set [1], the “Signal Decrease (%) (a)” value turned out to be 29.7% and the “Signal Decrease (%) (b)” value turned out to be 81.4%. Further, the “DPPH radical scavenging activity (in words)” value in data set [3] is on record as “did not exhibit any significant activity”.

With `CC(C)C[C@@H](/C=C/CC(=O)N[C@@H]1CC2CCC[C@@H](C1)N2[O])NC(=O)OC(C)(C)C` [Compound 26, (S,E)-N-(9-Azabicyclo[3.3.1]nonan-9-oxo-3-yl)-5-(tert-butoxycarbonylamino)-7-methyloct-3-enamide], in the data set on Ercc1^−/− MEFs (Ercc1−/− MEFs, 20% O2), the EC50 worked out at 11.8 ± 2.7 nM. Further, in data set [2], the “Do, before irradiation” value is 3.1 ± 0.6 Gy; the “ñ, before irradiation” value is listed as 1.0 ± 0.1; the “Do, after irradiation” value is reported as 1.3 ± 0.1 Gy; the “ñ, after irradiation” value is reported as 2.7 ± 0.7. Besides, the “protection of cells” value in data set [2] is given as “able to protect cells from multiple killing events”. Moreover, in data set [1], the “Signal Decrease (%) (a)” value came out at 100% and the “Signal Decrease (%) (b)” value worked out at 100%. In data set [3], the “DPPH radical scavenging activity (in words)” value is reported as “slightly higher EC50 values than their corresponding nitroxide substructures”.

Take `CC(C)C[C@@H](/C=C/CC(=O)NC1[C@@H]2CC3C[C@H]1C[C@](C)(C2)N3[O])NC(=O)OC(C)(C)C` (stereo partly shown) [Compound 33]: the EC50 in the data set with Ercc1^−/− MEFs (Ercc1−/− MEFs, 20% O2) amounted to 5.3 ± 0.5 nM. In data set [2], the “Do, before irradiation” value is recorded as 2.6 ± 0.4 Gy; the “ñ, before irradiation” value was 1.0 ± 0.1; the “Do, after irradiation” value is recorded as 1.3 ± 0.1 Gy; the “ñ, after irradiation” value is 2.5 ± 0.3. Besides, the “protection of cells” value in data set [2] is “able to protect cells from multiple killing events”.

On to `CC(C)C[C@@H](/C=C/[C@H](Cc1ccccc1)C(=O)N1CCC[C@H]1C(=O)N[C@H](C(=O)N[C@@H](CCCNC(=O)OCc1ccccc1)C(=O)NC1CC(C)(C)N([O])C(C)(C)C1)C(C)C)NC(=O)OC(C)(C)C` [XJB-5-131], for which the EC50 with Ercc1^−/− MEFs (Ercc1−/− MEFs, 20% O2) was determined as 212 ± 5.1 nM. For the same molecule, in data set [1], the “Signal Decrease (%) (a)” value is recorded as 76.7% and the “Signal Decrease (%) (b)” value amounted to 92.4%. In addition, the “DPPH radical scavenging activity (in words)” value in data set [3] is “did not exhibit any significant activity”.

In turn, `CC1(C)c2ccc(N)cc2C(C)(C)N1O` [Compound 8-H] had an EC50 in data set [3] of 169000 ± 7000 nM.

`N[C@@H]1CC2CCC[C@@H](C1)N2[O]` [Compound 12, 3-Amino-9-azabicyclo[3.3.1]nonane N-oxyl]: in data set [4], the “stability (in words)” value was “unstable”.

`CC(C)C[C@@H](/C=C/CC(=O)NC1CC(C)(C)N([O])C(C)(C)C1)NP(=O)(c1ccccc1)c1ccccc1` [Compound 3]: the EC50 with Ercc1^−/− MEFs is 70.4 nM.

For 6-Boc-amino-1-Me-AZADO [Compound 32], the EC50 with Ercc1^−/− MEFs (Ercc1−/− MEFs, 20% O2) was found to be 62.2 nM. In data set [1], the “Signal Decrease (%) (a)” value is 100% and the “Signal Decrease (%) (b)” value worked out at 100%. In data set [3], the “DPPH radical scavenging activity (in words)” value is recorded as “slightly higher EC50 values than their corresponding nitroxide substructures”.

Regarding `COc1cc(/C=C/C(=O)CC(=O)/C=C/c2ccc(O)c(OC)c2)ccc1O` [Curcumin, reference compound], in the data set with Ercc1^−/− MEFs (Ercc1−/− MEFs, 20% O2), the EC50 worked out at 1000 nM. In addition, the “rescue of senescence (in words)” value in the data set with Ercc1^−/− MEFs (used as negative control) is “only very weak effects”.

As to `CC(C)C[C@H](/C=C/CC(=O)NC1CC(C)(C)N([O])C(C)(C)C1)NC(=O)OC(C)(C)C` [Compound 5], the EC50 in the data set on Ercc1^−/− MEFs is 200 nM.

For `O=C1O[C@H]([C@@H](O)CO)C(O)=C1O` [Ascorbic acid, reference compound], in data set [3], the EC50 stood at 28000 ± 5000 nM.

As for `CC1(C)CCCC(C)(C)N1O` [TEMPO-H, reference compound], in data set [3], the EC50 was determined as 79000 ± 2000 nM.
